Assay results from patent publication US4912199A, “Oligopeptide anticancer and antiviral agents” (The Governors of the University of Alberta, priority 1987, dated 1990).
Values after ≈ are worked out from the molar mass of the structure shown. Like-named read-outs stand apart in the source and are kept apart here.

What was measured:
Herpes-2 = experiment: Antiviral test, minimum inhibitory concentration in primary rabbit kidney cell cultures; type: cell-based; conditions: 50% kill of the viruses in primary rabbit kidney cell cultures
Vaccinia = type: cell-based, vaccinia virus; conditions: for minimum inhibitory concentration against vaccinia virus: text of Examples 3(A) and 3(B), hydrochloride
[1] = tested on: primary rabbit kidney cell cultures; experiment: Minimal cytotoxic concentration in the antiviral test
Method: The antiviral properties of the compounds listed in Table 1 were tested to determine the minimum inhibitory concentration to achieve a 50% kill of the viruses in primary rabbit kidney cell cultures.

L1210 murine Leukemia = experiment: Anticancer properties, 50% cell kill (ID50); type: cell-based
[2] = tested on: FM3A murine mammary tumor; experiment: Anticancer properties, 50% cell kill (ID50); type: cell-based
RAJI human B lymphoblast = experiment: Anticancer properties, 50% cell kill (ID50); type: cell-based
Text: RAJI human B lymphoblast
FIG. 1 relates to such acitivity for the cell line MOLT/4F, human T lymphoblast. FIG. 2 related to the tumor cell lines of Raji, human B lymphoblast; all values being expressed in ID50 values in arbitrary units. […] The general formula for the compounds of this invention as tested in FIGS. 1 and 2 are of formula I, wherein A is represented by: [drawing 14] m is 1; n is 1 and Het is pyrrole, R is represented by the formula COk --(CH2)l --CO where l is equal to 0, 1, 2, 3, 4, 5, 6, 7 or 8 and k is equal to 0 or 1.

[3] = tested on: MOLT/4F human T lymphoblast; experiment: Anticancer properties, 50% cell kill (ID50); type: cell-based
P388 murine leukemia = experiment: Antileukemic properties, ID50 vs P388 leukemia; type: cell-based; conditions: 25,000 cells per well; 72 hours incubation at 37° C.
Method: The compounds of the following Table 3 were prepared in accordance with processes of this invention.

Herpes simplex-1 = experiment: Antiviral test, minimum inhibitory concentration in primary rabbit kidney cell cultures; type: cell-based; conditions: 50% kill of the viruses in primary rabbit kidney cell cultures
[4] = 50% kill of the viruses in primary rabbit kidney cell cultures

Row | SMILES | Minimum Inhibitory Conc. Herpes-2 (Herpes-2) | Minimum Inhibitory Conc. Vaccinia (Vaccinia; [4]) | Minimal Cytotoxic Conc. [1] | Minimum Inhibitory Conc. L1210 (ID50) (L1210 murine Leukemia) | Minimum Inhibitory Conc. FM3A (ID50) [2] | Minimum Inhibitory Conc. RAJI (ID50) (RAJI human B lymphoblast) | ID50 vs P388 leukemia (P388 murine leukemia) | Minimum Inhibitory Conc. Herpes simplex-1 (Herpes simplex-1) | further results
1 | Cl.Cl.Cn1cc(NC(=O)c2cc(NC(=O)/C=C/C(=O)Nc3cc(C(=O)Nc4cc(C(=O)NCCC(=N)N)n(C)c4)n(C)c3)cn2C)cc1C(=O)NCCC(=N)N [m=1 n=1 R = COCH CHCO (trans)] | 10 µg/mL | 2 µg/mL | ≥ 40 μg/m |  |  |  |  |  | 
2 | Cl.Cl.Cn1cc(NC(=O)c2cc(NC(=O)CCCCCCCCC(=O)Nc3cc(C(=O)Nc4cc(C(=O)NCCC(=N)N)n(C)c4)n(C)c3)cn2C)cc1C(=O)NCCC(=N)N [m=1 n=1 R = CO[CH2]8CO] |  |  |  | 4.21 ± 1.52 µg/mL | 22.1 ± 11.1 µg/mL | 3.34 ± 0.44 µg/mL | 0.98 µg/mL |  | Minimum Inhibitory Conc. MOLT/4F (ID50) [3]: 2.97 ± 0.4 µg/mL
3 | Cl.Cl.Cn1cc(NC(=O)c2cc(NC(=O)c3cc(NC(=O)CCC(=O)Nc4cc(C(=O)Nc5cc(C(=O)Nc6cc(C(=O)NCCC(=N)N)n(C)c6)n(C)c5)n(C)c4)cn3C)cn2C)cc1C(=O)NCCC(=N)N [m=1 n=2 R = CO(CH2)2 CO] | 4 µg/mL | 4 µg/mL | ≥ 40 μg/m | > 100 µg/mL | 4.29 ± 1.12 µg/mL | 4.14 ± 8.4 µg/mL |  | 4 µg/mL | Minimum Inhibitory Conc. MOLT/4F (ID50) [3]: 100 µg/mL
4 | Cl.Cl.Cn1cc(NC(=O)c2cc(NC(=O)CCCCC(=O)Nc3cc(C(=O)Nc4cc(C(=O)NCCC(=N)N)n(C)c4)n(C)c3)cn2C)cc1C(=O)NCCC(=N)N [m=1 n=1 l=4 k=1] |  |  |  |  |  |  | 1.05 µg/mL |  | 
5 | Cl.Cl.Cn1cc(NC(=O)c2cc(NC(=O)CCCC(=O)Nc3cc(C(=O)Nc4cc(C(=O)NCCC(=N)N)n(C)c4)n(C)c3)cn2C)cc1C(=O)NCCC(=N)N [m=1 n=1 l=3 k=1] |  |  |  |  |  |  | 6.4 µg/mL |  | 
6 | Cl.Cl.Cn1cc(NC(=O)c2cc(NC(=O)Nc3cc(C(=O)Nc4cc(C(=O)NCCC(=N)N)n(C)c4)n(C)c3)cn2C)cc1C(=O)NCCC(=N)N [m=1 n=1 l=0 k=0] |  |  |  |  |  |  | 8.0 µg/mL |  | 
7 | Cl.Cl.Cn1cc(NC(=O)c2cc(NC(=O)CCCCCC(=O)Nc3cc(C(=O)Nc4cc(C(=O)NCCC(=N)N)n(C)c4)n(C)c3)cn2C)cc1C(=O)NCCC(=N)N [m=1 n=1 l=5 k=1] |  |  |  |  |  |  | 4.4 µg/mL |  | 
8 | Cl.Cl.Cn1cc(NC(=O)c2cc(NC(=O)CCCCCCC(=O)Nc3cc(C(=O)Nc4cc(C(=O)NCCC(=N)N)n(C)c4)n(C)c3)cn2C)cc1C(=O)NCCC(=N)N [m=1 n=1 R = CO(CH2)6 CO] | 10 µg/mL | 0.2 µg/mL | ≥ 10 μg/m |  |  |  | 0.70 µg/mL | 10 µg/mL | 
9 | Cn1cc(NC(=O)c2cc(NC(=O)c3cc(NC=O)cn3C)cn2C)cc1C(=O)NCCC(=N)N [Distamycin, distamycin, reference compound] | 70 µg/mL |  |  | 27.1 ± 4.7 µg/mL | 30.6 ± 2.4 µg/mL | 23.7 ± 3.69 µg/mL | 20 µg/mL (≈ 41.5 µM) | 70 µg/mL | Minimum Inhibitory Conc. Vaccinia (Vaccinia): 0.2 µg/mL; Minimal Cytotoxic Conc. ([1]; primary rabbit kidney cell cultures): 200 μg/m
10 | Cl.Cl.Cn1cc(NC(=O)c2cc(NC(=O)CC(=O)Nc3cc(C(=O)Nc4cc(C(=O)NCCC(=N)N)n(C)c4)n(C)c3)cn2C)cc1C(=O)NCCC(=N)N [m=1 n=1 R = COCH2CO] |  |  |  | 28.5 ± 9.7 µg/mL | 5.87 ± 2.23 µg/mL | 3.39 ± 0.69 µg/mL | 0.91 µg/mL |  | Minimum Inhibitory Conc. MOLT/4F (ID50) [3]: 2.85 ± 0.6 µg/mL
11 | Cl.Cl.Cn1cc(NC(=O)c2cc(NC(=O)CCCCCCCC(=O)Nc3cc(C(=O)Nc4cc(C(=O)NCCC(=N)N)n(C)c4)n(C)c3)cn2C)cc1C(=O)NCCC(=N)N [m=1 n=1 R = CO(CH2)7 CO] | 40 µg/mL | 0.2 µg/mL | ≥ 100 μg/m |  |  |  | 0.75 µg/mL | 40 µg/mL | 
12 | Cl.Cn1cc(NC(=O)c2cc(NC(=O)C[N+](C)(C)C)cn2C)cc1C(=O)NCCC(=N)N.[Cl-] [3(B), 1-Methyl-4-(1-methyl-4-trimethylammonium-acetamidopyrrole-2-carboxamido)pyrrole-2-carboxamidopropionamidine chloride hydrochloride] |  |  |  |  |  |  |  |  | minimum inhibitory concentration against vaccinia virus (Vaccinia): 300 µg/mL
13 | Cl.Cn1cc(NC(=O)c2cc(NC(=O)C[N+](C)(C)C)cn2C)cc1C(=O)NCCC(=N)N.[Cl-] [Example 3(A), 1-Methyl-4-(1-methyl-4-trimethylammonium-acetamidopyrrole-2-carboxamido)pyrrole-2-carboxamidopropionamidine chloride hydrochloride] |  |  |  |  |  |  |  |  | minimum inhibitory concentration against vaccinia virus (Vaccinia): 20 µg/mL
